Key:
Procalcitonin = Procalcitonin in serum (ELISA), chronic zymosan peritonitis; type: in vivo, mouse; details: 2 mg/kg
Description: (§1) Peritoneal inflammation was induced by Zymosan A (Sigma Chemical) (Masashi et al. Zymosan, but Not Lipopolysaccharide, Triggers Severe and Progressive Peritoneal Injury Accompanied by complement Activation in a Rat Peritonitis Model) was prepared freshly in sterile, 0.9% w/v saline, and 0.5 ml was injected i.p. from day 0 to Day 5. The lymphocyte population in the peripheral blood was determined with a flow cytometer. Cells were phenotyped by flow cytometry with the following primary antibodies: CD4 (FITC) and CD8 (PE). Cells were gated broadly on all live lymphocyte cells, with only debris and multiple cell clusters being excluded. Analysis of mean fluorescence intensity was done and percentage cell population was evaluated. The test drugs were administered for 30 days after the induction of peritonitis. On 36th day the peritoneal cavity was lavaged with 1.5 ml saline, and after a 30-s gentle manual massage, 0.5 ml exudate was retrieved, centrifuged at 3000 g for 3 min, and frozen at 220° C. prior to cytokine and chemotactic-factor assessment.
Procalcitonin is a precursor for calcitonin, a peptide hormone involved in calcium homeostasis. In response to pro-inflammatory stimulus of bacterial origin, the procalcitonin level rises. The blood was collected from retro-orbital plexus from the animals of all groups. The blood was allowed to stand for 2 hrs without addition of anti-coagulant. […]

[1] = test system: Membrane attack complex (MAC); assay: Membrane attack complex in peritoneal exudate (ELISA), chronic zymosan peritonitis; type: in vivo, mouse; details: 2 mg/kg, day 36
Description: as §1
Assembly of Membrane attack complex (MAC) results from the complex pathway starting from C5 convertase cleaving C5 to form C5a and C5b. […] The protein concentrations were carried out by means of colorimetric measurement at 450 nm on an ELISA plate reader by interpolation from a standard curve. […]

CD8+ T cells = assay: Zymosan peritonitis chronic study: peripheral blood CD8+ T cell population (flow cytometry); type: in vivo, mouse; details: Withanone 2 mg/kg, day 36
Description: as §1, with “On 36th day the peritoneal cavity was lavaged with 1.5 ml saline, and after a 30-s gentle manual massage, 0.5 ml exudate was retrieved, centrifuged at 3000 g for 3 min, and frozen at 220° C. prior to cytokine and chemotactic-factor assessment.” left out
Flow cytometry enables the characterization of cells and subcellular organelles on the basis of size and granularity and a number of different parameters defined by fluorescent probes. […] Fluorochrome labelled monoclonal antibodies directed against co-receptors CD4 and CD8 were used to quantify the lymphocyte subsets in a multiparametric flow cytometric assay. […]

IL-10 = assay: Cytometric Bead Array of peritoneal fluid, chronic zymosan peritonitis: IL-10; type: in vivo, mouse; details: 2 mg/kg, vs Zymosan control
Description: as §1, with “The test drugs were administered for 30 days after the induction of peritonitis. On 36th day the peritoneal cavity was lavaged with 1.5 ml saline, and after a 30-s gentle manual massage, 0.5 ml exudate was retrieved, centrifuged at 3000 g for 3 min, and frozen at 220° C. prior to cytokine and chemotactic-factor assessment.” left out
(§2) The Cytometric Bead Array (Mouse Inflammation kit) was used to study cytokines in peritoneal fluid. […] Briefly, a mixture of 6 capture bead populations (50 μl) with distinct fluorescence intensities (detected in FL3) coated with antibodies specific for the above cytokines was mixed with each sample/standard (50 μl). […] Following acquisition of data by two colour cytometric analysis, the sample results were analysed using CBA software (BD Biosciences). […] Individual cytokine concentration ratios were indicated by their fluorescent intensities and was determined by interpolation from the corresponding standard curve.

[2] = test system: polymorphonuclear leukocytes, macrophages, lymphocytes; assay: Zymosan A induced peritonitis, acute study: intraperitoneal cellular influx; type: in vivo, BALB/c male mice; details: 2 mg/kg p.o (of 0.5, 1, 2, 4 mg/kg); 4, 12, 24 and 48 hrs after Zymosan A i.p.
Description: Peritoneal inflammation was induced according to Doherty et al. in BALB/c male mice aged 6-8 weeks. Zymosan A (Sigma Chemical) was prepared freshly (2 mg/ml) in sterile, 0.9% w/v saline, and 0.5 ml was injected i.p. Zymosan A is a cell wall component of fungus, caused proliferative peritonitis with severe accumulation of inflammatory cells. At the selected time points 4, 12, 24 and 48 hrs, the peritoneal cavity was lavaged with 1.5 ml saline, and after a 30-s gentle manual massage, 0.5 ml exudate was retrieved, centrifuged at 3000 g for 3 min. 0.5 ml exudate was collected and used freshly for cell counts.

IFN-γ = assay: Cytometric Bead Array of peritoneal fluid, chronic zymosan peritonitis: IFN-γ; type: in vivo, mouse; details: 2 mg/kg, vs Zymosan control
Description: as §1, with “The test drugs were administered for 30 days after the induction of peritonitis. On 36th day the peritoneal cavity was lavaged with 1.5 ml saline, and after a 30-s gentle manual massage, 0.5 ml exudate was retrieved, centrifuged at 3000 g for 3 min, and frozen at 220° C. prior to cytokine and chemotactic-factor assessment.” left out
as §2

CC1=C(C)C(=O)O[C@@H]([C@@H](C)[C@@]2(O)CC[C@H]3[C@@H]4[C@@H]5O[C@@H]5[C@@]5(O)CC=CC(=O)[C@]5(C)[C@H]4CC[C@@]32C)C1 [Withanone]
Decrease of expression level of procalcitonin compared to the Zymosan control (Procalcitonin): ~60% | Decrease of expression levels of MAC compared to the Zymosan control [1]: 56% | Inhibition of CD8+ compared to T cell population of Zymosan control (CD8+ T cells): 44% | Inhibition of IL-10 (IL-10): 52% | Inhibition of intraperitoneal cellular influx [2]: maximum effect in inhibiting cellular influx | Inhibition of IFN-γ (IFN-γ): 44%

From patent publication US20230404969A1, “COMPOSITIONS AND METHOD FOR EFFECTIVE MANAGEMENT OF PERITONITIS” (priority 2022, published 2023)
